Measurements: patent US20160311886A1, “Constructs Binding to Phosphatidylserine and Their Use in Disease Treatment and Imaging” (Board of Regents, The University of Texas System, priority 2005, published 2016)

Tests used:
[1] = test system: tumor and normal vascular endothelium; experiment: Biodistribution of 9D2 antibody and annexin V in tumor bearing mice; type: in vivo, mouse
Protocol: To detect externally-positioned phospholipids, methods were performed essentially as previously described (Example V; Ran et al., 1998). Tumor-bearing SCID mice were injected intravenously with either 50 μg of 9D2 or biotinylated 9D2 antibody or 100 μg of biotinylated annexin V. Sixty min later mice were sacrificed and their blood circulation was exsanguinated and perfused with heparinized saline as previously described (Burrows et al., 1992). All major organs and tumor were harvested and snap-frozen for preparation of cryosections.
Sections were blocked with PBS containing 10% serum. To prevent loss of phospholipids during slide processing, detergents and organic solvents were omitted from blocking and washing buffers. Rat IgM was detected using goat anti rat IgM specific)-HRP conjugate followed by development with carbazole or DAB (Fries et al., 1993). Biotinylated reagents were detected by streptavidin conjugated to HRP.
Tumor sections derived from mice injected with saline or rat IgM of irrelevant specificity served as negative controls. […] No signal was detected under these conditions. The number of positive vessels per high power field was determined at magnification of ×100. At least 10 fields per section were examined and the average percentage of positive vessels was calculated. […]
Structures with localized 9D2 antibody or annexin V were identified as blood vessels by morphological appearance on DAB-stained sections and by co-incident staining with the pan-endothelial cell marker, MECA 32 on serial sections of frozen tissues. Quantification on DAB-stained sections was done by counting vessels stained by MECA 32, 9D2 or annexin V in serial sections of a tumor. […] At least 10 random fields per section (0.317 mm^2/field) were scored in blinded fashion by two independent observers. The mean numbers and standard errors of vessels stained by 9D2, annexin V or MECA 32 were calculated. The mean number of 9D2 or annexin V-positive vessels determined in each tumor type group was compared to the mean number of MECA 32-positive vessels in the same tumor group. […]

bEnd.3 and ABAE cells = experiment: Binding to cultured endothelial cells and inhibition by liposomes; type: cell-based, mouse, bovine; conditions: quiescent conditions
Protocol: Endothelial cells were grown until they reached approximately 70% confluence. To induce PS exposure, cells were treated with H2O2 (200 μM) for 1 h at 37° C. Control and treated slides were washed with DPBS containing Ca^2+ and Mg^2+ and fixed with 0.25% of glutaraldehyde diluted in the same buffer. Excess aldehyde groups were quenched by incubation with 50 mM of NH4Cl for 5 min. To examine the effect of detergents and organic solvents on detection of phospholipids, some slides were pre-incubated with acetone (5 min) or with PBS containing 1% (v/v) Triton™ X-100.
Cells were washed with DPBS (containing Ca^2+, Mg^2+ and 0.2% (w/v) gelatin) and incubated with 1 μg/ml of biotinylated annexin V (Pharmingen, San Diego, Calif.) or with 1 μg/ml of 9D2 antibody. After 2 h of incubation, cells were washed with 0.2% gelatin buffer and were incubated with streptavidin-HRP (1:500 dilution). […] HRP activity was measured by adding O-phenylenediamine (0.5 mg/ml) and hydrogen peroxide (0.03% w/v) in citrate-phosphate buffer, pH 5.5. After 15 min, 100 μl of supernatant were transferred to 96 well plates, 100 μl of 0.18 M H2SO4 were added and the absorbance was measured at 490 nm. Alternatively, PS-positive cells were detected by addition of carbazole substrate, resulting in insoluble red-brownish precipitate. […]

[2] = Competition of 9D2 and annexin V for binding to immobilized PS; conditions: competitor in 10-fold molar excess
Protocol: Biotinylated 9D2 antibody and annexin V were prepared by incubating purified proteins with a 10-fold molar excess of N-hydroxysuccinimide biotin (Sigma, MO) for 1 h at room temperature. Free biotin was removed by dialysis against PBS. […] For competition studies, […] biotinylated proteins were premixed with a 10-fold molar excess of unmodified proteins. The mixtures were then added to PS-coated plates. Bound reagents were detected by streptavidin-HRP conjugate diluted 1:1000. The binding to PS of each reagent in the absence of a competitor was taken as the 100% value.

human CMV AD169 = experiment: CMV-GFP spread by fluorescent microscopy

Molecule	PS-positive vessels of MECA 32-stained vessels per field ([1]; B16 tumor)	PS-positive vessels of MECA 32-stained vessels per field ([1]; L540cy tumor)	PS-positive vessels of MECA 32-stained vessels per field ([1]; MDA-MB-231 tumor, one hour after i.v. injection)	binding to non-permeabilized monolayers (bEnd.3 and ABAE cells)	Binding (% Control) of Biotinylated 9D2 to PS [2]	Binding (% Control) of Biotinylated annexin V to PS [2]	cell-to-cell spread (human CMV AD169; 100 μg/ml and 50 μg/ml)	entry of the virus into the cells (human CMV AD169; day 3, 50 and 100 μg/ml)	viral spread in monolayer (human CMV AD169; day 9, 100 μg/ml and 50 μg/ml, control wells approximately 80% infected)
Annexin V: High affinity PS binding ligand; natural ligand binding anionic phospholipids and PE	21.3 ± 6.6%	16.7 ± 3.9%	45.3 ± 5.6%	Neither 9D2 nor annexin V bound	93%	8%			
3G4: Mouse IgG3 kappa monoclonal antibody to PS and anionic phospholipids; binding mediated by β2-glycoprotein I (antibody, listed as Mus musculus) VH: MGWTWIFILILSVTTGVHSEVQLQQSGPELEKPGASVKLSCKASGYSFTGYNMNWVKQSHGKSLEWIGHIDPYYGDTSYNQKFRGKATLTVDKSSSTAYMQLKSLTSEDSAVYYCVKGGYYGHWYFDVWGAGTTVTVSSATTTAPSVYPLVP VL: MDMRAPAQILGFLLLLFPGTRCDIQMTQSPSSLSASLGERVSLTCRASQDIGSSLNWLQQGPDGTIKRLIYATSSLDSGVPKRFSGSRSGSDYSLTISSLESEDFVDYYCLQYVSSPPTFGAGTKLELKRADAAPTVFIFGRIP							complete inhibition of cell-to-cell spread	does not appear to significantly inhibit the entry of the virus	restricted to the original singly-infected cell
